Assay results from patent US12110286B2, “Benzimidazolone derived inhibitors of BCL6” (Cancer Research Technology Limited, priority 2017, dated 2024).

Target: Trx-6×His-BCL6 (human BCL6 BTB domain covering amino-acid sequence 5-129) (Homo sapiens (Human), UniProt P41182)
Experiment: HTRF in vitro assay (BCL6 / BCOR-AF633 peptide)
Format: binding
Conditions: for activity in the HTRF assay: result in words
Protocol: The % inhibition at each concentration was calculated by normalising FRET ratio to the appropriate high (DMSO with all reagents) and low (DMSO without BCL6) controls.

[1] = further generated data, 1 nM Trx-6×His-BCL6, 300 nM BCOR-AF633 peptide, 0.5 nM anti-6×His-Terbium cryptate
[2] = initially generated data, 10 nM Trx-6×His-BCL6, 300 nM BCOR-AF633 peptide, 1 nM anti-6×His-Terbium cryptate

Row | HTRF pIC50 [1] | HTRF pIC50 [2] | activity in the HTRF assay | SMILES
1 | 5.74 |  |  | CC(C)(O)CCn1c(=O)n(CCC(C)(C)O)c2c(Cl)cc(Nc3nc(N4CC(C)(C)OC(C)(C)C4)ncc3Cl)cc21 [Example 35u, 4-chloro-6-((5-chloro-2-(2,2,6,6-tetramethylmorpholino)pyrimidin-4-yl)amino)-1,3-bis(3-hydroxy-3-methylbutyl)-1,3-dihydro-2H-benzo[d]imidazol-2-one]
2 | 6.56 |  |  | Cn1c(=O)n(CCC(C)(C)O)c2cc(Nc3nc(N4CCC(CN5CCOCC5)CC4)ncc3Cl)ccc21 [Example 42c, 5-((5-chloro-2-(4-(morpholinomethyl)piperidin-1-yl)pyrimidin-4-yl)amino)-3-(3-hydroxy-3-methylbutyl)-1-methyl-1,3-dihydro-2H-benzo[d]imidazol-2-one]
3 | 5.40 |  |  | CC(C)C(C)(O)CCn1c(=O)n(C)c2ccc(Nc3ccnc(Cl)c3C#N)cc21 (stereo not drawn) [Example 27f, 2-chloro-4-((3-(3-hydroxy-3,4-dimethylpentyl)-1-methyl-2-oxo-2,3-dihydro-1H-benzo[d]imidazol-5-yl)amino)nicotinonitrile]
4 | 6.49 |  |  | C[C@@H]1CN(c2ncc(Cl)c(Nc3ccc4c(c3)n(CCC(C)(C)O)c(=O)n4CCO)n2)C[C@H](C)C1(F)F [Example 40a, 5-[[5-chloro-2-[(3S,5R)-4,4-difluoro-3,5-dimethyl-1-piperidyl]pyrimidin-4-yl]amino]-1-(2-hydroxyethyl)-3-(3-hydroxy-3-methyl-butyl)benzimidazol-2-one]
5 | 5.58 |  |  | Cn1c(=O)n(CC2COCCN2CC(F)(F)F)c2cc(Nc3ccnc(Cl)c3C#N)ccc21 (stereo not drawn) [Example 25a, 2-chloro-4-((1-methyl-2-oxo-3-((4-(2,2,2-trifluoroethyl)morpholin-3-yl)methyl)-2,3-dihydro-1H-benzo[d]imidazol-5-yl)amino)nicotinonitrile]
6 | 5.73 |  |  | Cn1c(=O)n(CCC(C)(C)O)c2cc(Nc3cc(N4CCC[C@H]4CO)nc4c(C#N)cnn34)ccc21 [Example 31b, (S)-7-((3-(3-hydroxy-3-methylbutyl)-1-methyl-2-oxo-2,3-dihydro-1H-benzo[d]imidazol-5-yl)amino)-5-(2-(hydroxymethyl)pyrrolidin-1-yl)pyrazolo[1,5-a]pyrimidine-3-carbonitrile]
7 | 6.15 |  |  | C[C@@H]1CN(c2ncc(Cl)c(Nc3ccc4c(c3)n(CCC(C)(C)O)c(=O)n4C)n2)C[C@@H]1C [Example 35p, 5-((5-chloro-2-((3R,4S)-3,4-dimethylpyrrolidin-1-yl)pyrimidin-4-yl)amino)-3-(3-hydroxy-3-methylbutyl)-1-methyl-1,3-dihydro-2H-benzo[d]imidazol-2-one]
8 | 6.88 |  |  | Cn1c(=O)n(CCC(C)(C)O)c2cc(Nc3nc(N4CCC(N5CCOCC5)CC4)ncc3Cl)ccc21 [Example 42h, 5-((5-chloro-2-(4-morpholinopiperidin-1-yl)pyrimidin-4-yl)amino)-3-(3-hydroxy-3-methylbutyl)-1-methyl-1,3-dihydro-2H-benzo[d]imidazol-2-one]
9 | 5.70 |  |  | C[C@@H]1CCN(c2ncc(Cl)c(Nc3ccc4c(c3)n(CCC(C)(C)O)c(=O)n4C)n2)C[C@H](C)C1 [Example 35y, 5-((5-chloro-2-((3R,5S)-3,5-dimethylazepan-1-yl)pyrimidin-4-yl)amino)-3-(3-hydroxy-3-methylbutyl)-1-methyl-1,3-dihydro-2H-benzo[d]imidazol-2-one]
10 | 6.33 |  |  | Cn1ccnc1-c1ncc(Cl)c(Nc2ccc3c(c2)n(CCC(C)(C)O)c(=O)n3C)n1 [Example 24a, 5-((5-chloro-2-(1-methyl-1H-imidazol-2-yl)pyrimidin-4-yl)amino)-3-(3-hydroxy-3-methylbutyl)-1-methyl-1,3-dihydro-2H-benzo[d]imidazol-2-one:formic acid (1:1)]

The next lines start with the compound.

Row | SMILES | HTRF pIC50 [1] | HTRF pIC50 [2] | activity in the HTRF assay
11 | CNC(=O)c1cc(Nc2ccc3c(c2)n(CC[C@H](C)n2cccn2)c(=O)n3C)c(C#N)c(Cl)n1 [Example 1d, 6-chloro-5-cyano-N-methyl-4-[[1-methyl-2-oxo-3-[(3S)-3-pyrazol-1-ylbutyl]benzimidazol-5-yl]amino]pyridine-2-carboxamide] |  | 6.04 | 
12 | Cn1c(=O)n(CCC2(C)OCCO2)c2cc(Nc3ccnc(Cl)c3C#N)ccc21 [Example 19c] | 5.45 |  | 
13 | COC(=O)C(CCn1c(=O)n(C)c2ccc(Nc3ccnc(Cl)c3C#N)cc21)OC (stereo not drawn) [Example 10b] | 5.57 | 5.71 | 
14 | Cn1c(=O)n(CCC(C)(C)O)c2cc(Nc3nc(N4CCC(F)(F)CC4)ncc3Cl)ncc21 [6-((5-chloro-2-(4,4-difluoropiperidin-1-yl)pyrimidin-4-yl)amino)-1-(3-hydroxy-3-methylbutyl)-3-methyl-1,3-dihydro-2H-imidazo[4,5-c]pyridin-2-one] |  |  | did not exhibit the desired activity
15 | CCOC(=O)c1cc(Nc2ccc3c(c2)n(CCC(C)(C)O)c(=O)n3C)n2nccc2n1 [Example 1h, Ethyl 7-[[3-(3-hydroxy-3-methyl-butyl)-1-methyl-2-oxo-benzimidazol-5-yl]amino]pyrazolo[1,5-a]pyrimidine-5-carboxylate] | 5.94 | 5.79 | 
16 | Cn1c(=O)n(CCC(C)(C)O)c2cc(Nc3cc(N4CCC(F)(F)CC4)ncc3Cl)ncc21 [6-((5-chloro-2-(4,4-difluoropiperidin-1-yl)pyridin-4-yl)amino)-1-(3-hydroxy-3-methylbutyl)-3-methyl-1,3-dihydro-2H-imidazo[4,5-c]pyridin-2-one] |  |  | did not exhibit the desired activity
17 | COC(=O)[C@@H](N)CCn1c(=O)n(C)c2ccc(Nc3ccnc(Cl)c3C#N)cc21 [Example 6, Methyl (2S)-2-amino-4-[6-[(2-chloro-3-cyano-4-pyridyl)amino]-3-methyl-2-oxo-benzimidazol-1-yl]butanoate] | 6.00 | 5.97 | 
18 | Cn1c(=O)n(CCC(C)(C)O)c2cc(Nc3ccncc3Cl)ncc21 [6-((3-chloropyridin-4-yl)amino)-1-(3-hydroxy-3-methylbutyl)-3-methyl-1,3-dihydro-2H-imidazo[4,5-c]pyridin-2-one] |  |  | did not exhibit the desired activity
19 | Cn1c(=O)n(CCC(C)(C)O)c2cc(Nc3nc(N4CC5CC(C4)C5(F)F)ncc3Cl)ccc21 [Example 35w, 5-((5-chloro-2-(6,6-difluoro-3-azabicyclo[3.1.1]heptan-3-yl)pyrimidin-4-yl)amino)-3-(3-hydroxy-3-methylbutyl)-1-methyl-1,3-dihydro-2H-benzo[d]imidazol-2-one] | 5.74 |  | 
20 | Cn1c(=O)n(C[C@@H]2CCC[C@]2(C)O)c2cc(Nc3ccnc(Cl)c3C#N)ccc21 [Example 22n] | 5.90 |  | 
21 | COC(=O)C(C)CCn1c(=O)n(C)c2ccc(Nc3cc(C(=O)O)nc(Cl)c3C#N)cc21 (stereo not drawn) [Example 3a, 6-Chloro-5-cyano-4-[[3-(4-methoxy-3-methyl-4-oxo-butyl)-1-methyl-2-oxo-benzimidazol-5-yl]amino]pyridine-2-carboxylic acid] | 5.93 | 6.21 | 
22 | C[C@@H](O)CCn1c(=O)n(C)c2ccc(Nc3ccnc(Cl)c3Cl)cc21 [Example 1q, 5-[(2,3-dichloro-4-pyridyl)amino]-3-[(3R)-3-hydroxybutyl]-1-methyl-benzimidazol-2-one] | 5.45 | 5.49 | 
23 | CCOC(=O)c1cc(Nc2ccc3c(c2)n(CCC(C)C(=O)OC)c(=O)n3C)c(C#N)c(Cl)n1 (stereo not drawn) [Example 2b, Ethyl 6-chloro-5-cyano-4-[[3-(4-methoxy-3-methyl-4-oxo-butyl)-1-methyl-2-oxo-benzimidazol-5-yl]amino]pyridine-2-carboxylate] | 6.10 | 6.19 | 
24 | COC(=O)C(C)CCn1c(=O)n(C)c2ccc(Nc3ccnc(Cl)c3C#N)cc21 (stereo not drawn) [Example 1j, Methyl 4-[6-[(2-chloro-3-cyano-4-pyridyl)amino]-3-methyl-2-oxo-benzimidazol-1-yl]-2-methyl-butanoate] | 5.78 | 5.67 | 
25 | Cn1c(=O)n(CCC(C)(C)O)c2cc(Nc3ncnc(Cl)c3Cl)ccc21 [Example 22l] | 5.64 |  | 
26 | CN1CCC[C@@H]1Cn1c(=O)n(C)c2ccc(Nc3ccnc(Cl)c3C#N)cc21 [(R)-2-chloro-4-((1-methyl-3-((1-methylpyrrolidin-2-yl)methyl)-2-oxo-2,3-dihydro-1H-benzo[d]imidazol-5-yl)amino)nicotinonitrile] |  |  | did not exhibit the desired activity
27 | Cn1c(=O)n(CCS(C)(=O)=O)c2cc(Nc3ccnc(Cl)c3C#N)ccc21 [Example 18b, 2-chloro-4-((1-methyl-3-(2-(methylsulfonyl)ethyl)-2-oxo-2,3-dihydro-1H-benzo[d]imidazol-5-yl)amino)nicotinonitrile] | 5.31 |  | 
28 | Cn1c(=O)n(CCC(C)(C)O)c2cc(Nc3ccnc(Cl)c3C#N)c(F)cc21 [Example 22f] | 5.75 |  | 
29 | Cn1c(=O)n(CCC(C)(C)O)c2cc(Nc3nc(-n4cc(C(F)(F)F)cn4)ncc3Cl)ccc21 [Example 20s] | 6.26 |  | 
30 | C[C@@H]1C[C@H](C)CN(c2cc(Nc3ccc4c(c3)n(CCC(C)(C)O)c(=O)n4C)c(Cl)cn2)C1 [Example 36d, 5-((5-chloro-2-((3S,5R)-3,5-dimethylpiperidin-1-yl)pyridin-4-yl)amino)-3-(3-hydroxy-3-methylbutyl)-1-methyl-1,3-dihydro-2H-benzo[d]imidazol-2-one] | 5.48 |  | 
31 | C[C@@H](O)CCn1c(=O)n(C)c2ccc(Nc3cc(C(=O)O)nc(Cl)c3C#N)cc21 [Example 1e, 6-chloro-5-cyano-4-[[3-[(3R)-3-hydroxybutyl]-1-methyl-2-oxo-benzimidazol-5-yl]amino]pyridine-2-carboxylic acid] |  | 6.01 | 
32 | Cc1cncnc1Nc1ccc2c(c1)n(C)c(=O)n2C [1,3-dimethyl-5-((5-methylpyrimidin-4-yl)amino)-1,3-dihydro-2H-benzo[d]imidazol-2-one] |  |  | did not exhibit the desired activity
